The record followed here is publication PMC2613953, “Characterisation of ATP analogues to cross-link and label P2X receptors” (Neuropharmacology, 2009).

Assay type in all cases: cell-based
The target of experiment [1] is T1, P2X1 receptor (Homo sapiens, UniProt P51575).
T1 construct: gene P2RX1; human P2X1 receptor stably expressed in HEK293 cells
T1 sequence (P51575 1-399): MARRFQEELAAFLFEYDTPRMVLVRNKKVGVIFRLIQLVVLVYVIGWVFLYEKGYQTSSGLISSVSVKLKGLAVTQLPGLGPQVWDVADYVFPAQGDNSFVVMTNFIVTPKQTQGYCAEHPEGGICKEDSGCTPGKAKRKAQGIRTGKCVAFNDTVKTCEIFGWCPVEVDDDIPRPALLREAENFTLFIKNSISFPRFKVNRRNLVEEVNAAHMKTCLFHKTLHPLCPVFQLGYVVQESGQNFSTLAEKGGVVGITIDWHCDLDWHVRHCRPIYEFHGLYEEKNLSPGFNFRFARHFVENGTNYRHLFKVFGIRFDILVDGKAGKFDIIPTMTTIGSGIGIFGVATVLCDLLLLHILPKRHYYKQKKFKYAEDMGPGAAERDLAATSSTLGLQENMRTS
Nature of the experiment: UV photo-cross-linking of radiolabelled analogue, immunoprecipitation and autoradiography with ATP competition; patch clamp agonism. From the text:
UV photo-cross-linking of radiolabelled analogue, immunoprecipitation and autoradiography with ATP competition; patch clamp agonism on P2X1 receptor | It confirms the identification of 2-azido ATP as a cross-linking compound which directly binds to the P2X1 receptor.
(In patch-clamp work, channel activity is measured electrically.)

Another experiment concerns the target T2, P2X4 receptor (Homo sapiens, UniProt Q99571).
T2 construct: gene P2RX4; human P2X4 receptor stably expressed in HEK293 cells
T2 sequence (Q99571 1-388): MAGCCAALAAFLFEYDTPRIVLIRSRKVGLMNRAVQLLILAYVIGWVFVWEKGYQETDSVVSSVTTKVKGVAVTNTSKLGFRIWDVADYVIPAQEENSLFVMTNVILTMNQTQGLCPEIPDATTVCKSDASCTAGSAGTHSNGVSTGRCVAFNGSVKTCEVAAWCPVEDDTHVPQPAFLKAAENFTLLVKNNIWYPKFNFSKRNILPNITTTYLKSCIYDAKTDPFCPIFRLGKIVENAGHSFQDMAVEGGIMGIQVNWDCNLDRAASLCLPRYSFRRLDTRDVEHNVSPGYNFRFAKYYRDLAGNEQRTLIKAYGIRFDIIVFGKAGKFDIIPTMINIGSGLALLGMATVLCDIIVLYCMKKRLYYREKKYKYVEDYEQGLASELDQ
As to the kind of experiment: UV photo-cross-linking, then whole cell patch clamp ([…] reduction of ATP current).

Experiment [2] addresses T3, P2X3 receptor (Rattus norvegicus, UniProt P49654).
T3 construct: gene P2rx3; rat P2X3 transiently expressed in HEK293 cells
T3 sequence (P49654 1-397): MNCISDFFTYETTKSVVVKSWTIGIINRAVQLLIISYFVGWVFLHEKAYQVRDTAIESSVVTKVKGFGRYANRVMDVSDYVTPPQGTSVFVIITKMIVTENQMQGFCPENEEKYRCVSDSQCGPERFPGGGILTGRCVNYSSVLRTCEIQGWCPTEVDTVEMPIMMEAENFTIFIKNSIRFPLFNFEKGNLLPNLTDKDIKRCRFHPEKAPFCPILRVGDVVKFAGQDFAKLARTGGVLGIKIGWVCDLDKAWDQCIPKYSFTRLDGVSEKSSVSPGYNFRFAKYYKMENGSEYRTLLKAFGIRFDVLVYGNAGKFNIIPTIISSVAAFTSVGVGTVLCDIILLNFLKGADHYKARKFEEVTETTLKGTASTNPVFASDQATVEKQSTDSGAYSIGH
The experiment is described as above.

Experiment [3] deals with T4, P2X2 receptor (Rattus norvegicus, UniProt P49653).
T4 construct: gene P2rx2; rat P2X2 transiently expressed in HEK293 cells
T4 sequence (P49653 1-472): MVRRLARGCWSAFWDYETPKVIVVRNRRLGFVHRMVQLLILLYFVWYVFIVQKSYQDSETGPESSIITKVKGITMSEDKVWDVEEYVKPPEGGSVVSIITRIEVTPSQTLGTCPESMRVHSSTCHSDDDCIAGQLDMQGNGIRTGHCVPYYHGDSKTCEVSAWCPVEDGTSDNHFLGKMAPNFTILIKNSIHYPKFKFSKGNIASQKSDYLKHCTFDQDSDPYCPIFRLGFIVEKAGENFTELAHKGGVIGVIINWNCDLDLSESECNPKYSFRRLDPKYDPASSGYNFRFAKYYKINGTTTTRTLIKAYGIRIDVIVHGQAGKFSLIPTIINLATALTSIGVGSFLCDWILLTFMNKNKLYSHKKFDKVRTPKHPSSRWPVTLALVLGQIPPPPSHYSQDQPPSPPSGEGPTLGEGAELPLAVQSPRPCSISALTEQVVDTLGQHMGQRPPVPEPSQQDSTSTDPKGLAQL
Described as above.

Experiment [4] has as its target T4, P2X2 receptor. Nature of the experiment: whole cell patch clamp, agonist current at approximate EC50 concentration.
Experiment [5] deals with T1, P2X1 receptor. Nature of the experiment: competition with radiolabelled photo-reactive ATP analogues; whole cell patch clamp agonism.
For experiment [6], the target named is T3, P2X3 receptor. As to the kind of experiment: whole cell patch clamp, agonist current at approximate EC50 concentration.
Experiment [7] concerns the target T1, P2X1 receptor. Nature of the experiment: whole cell patch clamp; partial agonist; UV cross-linking with ATP/suramin protection.

With `[N-]=[N+]=Nc1nc(N)c2ncn([C@@H]3O[C@H](COP(=O)(O)OP(=O)(O)OP(=O)(O)O)[C@@H](O)[C@H]3O)c2n1` [A, 2-azido ATP], the EC50 at P2X1 receptor [1] was about 3 µM. In addition, the entries for the “% reduction” value on P2X4 receptor, at P2X3 receptor [2] and on P2X2 receptor [3] were 45 % reduction, 83 % reduction and 80 % reduction, respectively.
For `Nc1ncnc2c1ncn2[C@@H]1O[C@H](COP(=O)(O)OP(=O)(O)OP(=O)(O)O)[C@@H](O)[C@H]1O` [ATP], the 50% effective concentration (EC50) was ~ 10 μM at P2X2 receptor [4], about 1 µM at P2X1 receptor [5] and ~ 1 μM at P2X3 receptor [6].
With `Nc1ncnc2c1ncn2[C@@H]1O[C@H](COP(=O)(O)OP(=O)(O)OP(=O)(O)O)[C@@H](OC(=O)c2ccc(C(=O)c3ccccc3)cc2)[C@H]1O` [C, 2′,3′-O-(4-benzoylbenzoyl)-ATP], at P2X1 receptor [7], the “whole cell patch clamp; partial agonist; UV cross-linking with ATP/suramin prote” value is on record as “These results suggest that the BzATP is acting to cross-link to the P2X1 receptor at the ATP binding site”.

For orientation: EC50 means the concentration that produces a half-maximal response. Read a low EC50 as an effect from little substance.
